Source: US20260125375A1 (Pfizer Inc., priority 2022, published 2026)
Read-outs that look alike come from different tables or passages of the source.

Tests used:
[1] = molecular target: T1, C-CBL (Homo sapiens, UniProt P22681); assay: Jurkat HiBit-IL2 assay (CBL-B KO), reporter cell line expressing C-CBL only; type: cell-based; settings: geometric mean, read-out: CBL-B KO EC50 (nM) GMean
T1 construct: endogenous in cells; host or cells: Jurkat HiBit-IL2 reporter cells, CBL-B knocked out by CRISPR
Summary of the method: (§1)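 IL-2 secretion was measured by HiBiT luminescence after 1 h compound exposure (0.1% DMSO) and 4 h TCR/CD28 stimulation (final anti-CD3 1 μg/ml, anti-CD28 2 μg/ml, 37 °C) of Jurkat reporters lacking c-CBL or CBL-B. EC50 came from fold-of-effect versus stimulated-only cells, as geometric means across tests.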

[2] = molecular target: T2, CBL-B (residues 36-427) (Homo sapiens, UniProt Q13191); assay: Ligand Displacement Assay (LDA), HTRF competitive binding against BODIPY-labeled fluorescent tracer, CBL-B; settings: geometric mean of the number of tests, read-out: CBL-B Ki (nM) GMean
T2 construct: Purified CBL-B (residues 36-427) and C-CBL (residues 46-435) proteins from baculovirus-infected insect cells; made in house; host or cells: baculovirus-infected insect cells
Summary of the method: (§2)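 Competition with a BODIPY fluorescent tracer was read by HTRF, each protein carrying an N-terminal biotinylated AviTag bound to Tb-streptavidin. Tracer KD values were set beforehand per protein; Ki derives from duplicate three-fold compound series ([…], 2% DMSO), averaged geometrically across tests.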

[3] = molecular target: T3, CBL-B (Homo sapiens, UniProt Q13191); assay: Jurkat HiBit-IL2 assay (c-CBL KO), reporter cell line expressing CBL-B only; type: cell-based; settings: geometric mean, read-out: C-CBL KO EC50 (nM) GMean
T3 construct: endogenous in cells; host or cells: Jurkat HiBit-IL2 reporter cells, C-CBL knocked out by CRISPR
Summary of the method: as §1

[4] = molecular target: T4, C-CBL (residues 46-435) (Homo sapiens, UniProt P22681); assay: Ligand Displacement Assay (LDA), HTRF competitive binding against BODIPY-labeled fluorescent tracer, C-CBL; settings: geometric mean of the number of tests, read-out: C-CBL Ki (nM) GMean
T4 construct: Purified CBL-B (residues 36-427) and C-CBL (residues 46-435) proteins from baculovirus-infected insect cells; made in house; host or cells: baculovirus-infected insect cells
T4 sequence (P22681 46-435): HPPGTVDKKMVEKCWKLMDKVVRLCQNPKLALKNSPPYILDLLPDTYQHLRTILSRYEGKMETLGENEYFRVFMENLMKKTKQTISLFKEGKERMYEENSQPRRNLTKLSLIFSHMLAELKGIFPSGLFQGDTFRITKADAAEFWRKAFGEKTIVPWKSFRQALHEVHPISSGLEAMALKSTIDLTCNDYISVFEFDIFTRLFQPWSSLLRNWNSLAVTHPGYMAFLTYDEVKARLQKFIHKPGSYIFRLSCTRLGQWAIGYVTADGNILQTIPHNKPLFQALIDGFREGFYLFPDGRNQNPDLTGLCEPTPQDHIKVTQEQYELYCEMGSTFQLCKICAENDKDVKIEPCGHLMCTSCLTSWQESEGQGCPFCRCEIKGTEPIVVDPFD
Summary of the method: as §2

[5] = CBL-B KO (C-CBL only), anti-CD3/anti-CD28 stimulation 4 hours, Table 16a
[6] = CBL-B KO (expressing C-CBL only), Table 16b (further repetition)
[7] = C-CBL KO (expressing CBL-B only), Table 16b (further repetition)
[8] = c-CBL KO (CBL-B only), anti-CD3/anti-CD28 stimulation 4 hours, Table 16a

| Compound | EC50 [1, 5] [nM] | EC50 [1, 6] [nM] | Ki [2] [nM] | EC50 [3, 7] [nM] | EC50 [3, 8] [nM] | Ki [4] [nM] |
| --- | --- | --- | --- | --- | --- | --- |
| C[C@H](CO)N[C@@H](C)c1nc(C(F)(F)F)cc2c(-c3cccc([C@H](c4nncn4C)C4CCC4)c3)n[nH]c12 (single isomer, unassigned) [Example C43] | 912 | 554 | 6.7 | 61 | 51 | 87.7 |
| CC(NCCO)c1nc(C(F)(F)F)cc2c(-c3cccc([C@H](c4nncn4C)C4CCC4)c3)n[nH]c12 (single isomer, unassigned) [Example C41] | 327 | 877 | 3.2 | 154 | 42 | 30.1 |
| C[C@@H](c1nc(C(F)(F)F)cc2c(-c3cccc([C@H](c4nncn4C)C4CCC4)c3)n[nH]c12)N1CC[C@H](O)C1 (single isomer, unassigned) [Example D71] |  | 434 | 1.3 | 77 |  | 13 |
| C[C@H](N[C@@H]1CC[C@H]1O)c1nc(C(F)(F)F)cc2c(-c3cccc([C@H](c4nncn4C)C4CCC4)c3)n[nH]c12 (single isomer, unassigned) [Example D23] | 63 | 124 | 1.8 | 21 | 6 | 9.9 |
| C[C@H](c1nc(C(F)(F)F)cc2c(-c3cccc([C@H](c4nncn4C)C4CCC4)c3)n[nH]c12)N1CC(C)(O)C1 (single isomer, unassigned) [Example D67] |  | 1520 | 10.9 | 321 |  | 78.5 |
| C[C@@H](NC1CC[C@H]1O)c1nc(C(F)(F)F)cc2c(-c3cccc([C@H](c4nncn4C)C4CCC4)c3)n[nH]c12 (single isomer, unassigned) [Example D31] | 199 | 258 | 4 | 56 | 16 | 27.3 |
| C[C@@H](O)CN[C@H](C)c1nc(C(F)(F)F)cc2c(-c3cccc([C@H](c4nncn4C)C4CCC4)c3)n[nH]c12 (single isomer, unassigned) [Example D26] | 122 | 180 | 1.8 | 30 | 9 | 14 |
| CC[C@H](c1cccc(-c2n[nH]c3c([C@H](C)NC[C@H](C)O)nc(C(F)(F)F)cc23)c1)c1nncn1C (single isomer, unassigned) [Example D76] |  | 39 | 0.7 | 20 |  | 2.9 |
| C[C@@H](NC1(CO)CCC1)c1nc(C(F)(F)F)cc2c(-c3cccc([C@H](c4nncn4C)C4CCC4)c3)n[nH]c12 (single isomer, unassigned) [Example D73] |  | 639 | 12.1 | 118 |  | 157 |
| C[C@H](NC1(CO)CCC1)c1nc(C(F)(F)F)cc2c(-c3cccc([C@H](c4nncn4C)C4CCC4)c3)n[nH]c12 (single isomer, unassigned) [Example D72] |  | 563 | 8.7 | 103 |  | 116 |
| C[C@@H](N[C@@H]1COC[C@@H]1O)c1nc(C(F)(F)F)cc2c(-c3cccc([C@H](c4nncn4C)C4CCC4)c3)n[nH]c12 (single isomer, unassigned) [Example D56] |  | 365 | 6.2 | 84 |  | 62.3 |
| CC(NC(=O)CO)c1nc(C(F)(F)F)cc2c(-c3cccc([C@H](c4nncn4C)C4CCC4)c3)n[nH]c12 (single isomer, unassigned) [Example I2] | 2420 |  | 7.8 |  | 313 | 64.5 |
| CCC(CC)(CO)N[C@H](C)c1nc(C(F)(F)F)cc2c(-c3cccc([C@H](c4nncn4C)C4CCC4)c3)n[nH]c12 (single isomer, unassigned) [Example D75] |  | 1030 | 11 | 195 |  | 128 |
| C[C@H](c1nc(C(F)(F)F)cc2c(-c3cccc([C@H](c4nncn4C)C4CCC4)c3)n[nH]c12)N1CC[C@H]1CO (single isomer, unassigned) [Example D65] |  | 1180 | 13.7 | 468 |  | 110 |
| C[C@H](N[C@@H]1CC[C@H](O)C1)c1nc(C(F)(F)F)cc2c(-c3cccc([C@H](c4nncn4C)C4CCC4)c3)n[nH]c12 [Example C49, (1S,3R)-3-({(1S)-1-[3-{3-[(R)-cyclobutyl(4-methyl-4H-1,2,4-triazol-3-yl)methyl]phenyl}-5-(trifluoromethyl)-1H-pyrazolo[3,4-c]pyridin-7-yl]ethyl}amino)cyclopentanol] | 135 |  | 2.1 |  | 8 | 20.9 |
| CC(N[C@H]1CCC[C@@H]1O)c1nc(C(F)(F)F)cc2c(-c3cccc([C@H](c4nncn4C)C4CCCCC4)c3)n[nH]c12 (single isomer, unassigned) [Example C101] |  | 909 | 2.5 | 58 |  | 21 |
| C[C@H](N[C@@H](C)CO)c1nc(C(F)(F)F)cc2c(-c3cccc([C@H](c4nncn4C)C4CCC4)c3)n[nH]c12 (single isomer, unassigned) [Example D27] | 194 | 209 | 1 | 24 | 11 | 9.1 |
| CCC(CC)(CO)N[C@@H](C)c1nc(C(F)(F)F)cc2c(-c3cccc([C@H](c4nncn4C)C4CCC4)c3)n[nH]c12 (single isomer, unassigned) [Example D74] |  | 3400 | 31.5 | 639 |  | 366 |
